Assay: Coloring and deliquescence of compressed droxidopa/additive mixtures on preservation
Type: physicochemical
Method: Droxidopa and the following excipients were mixed at 1:1 in a mortar and the mixture was compressed at a pressure of 20 kgf/cm^2 using an oil hydraulic press (manufactured by RIKEN). The obtained tablets were preserved under the respective conditions of 60° C. […] The 60° C. 2 week preservation product was measured for the color difference from the initial stage preservation product using a spectral calorimeter (SE-2000: manufactured by Nippon Denshoku Industries Co., Ltd.).
Droxidopa and the following excipients were mixed at 4:1 in a mortar and the mixture was compressed at a pressure of 20 kgf/cm^2 using an oil hydraulic press (manufactured by RIKEN) .

60° C. × 2 W color difference (droxidopa:additive 1:1 compressed tablet, difference from initial stage product): 2.73
60° C. × 2 W color difference (droxidopa:additive 4:1 compressed tablet): 2.73
Structure (SMILES): N[C@H](C(=O)O)[C@H](O)c1ccc(O)c(O)c1 [droxidopa alone (without disintegrant), droxidopa]

Source: patent US20090074861A1, “STABLE TABLET CONTAINING DROXIDOPA” (DAINIPPON SUMITOMO PHARMA CO., LTD., priority 2005, published 2009)
